# According to patent US10526322B2, “Inhibitors of kidney-type glutaminase, GLS-1” (CORNELL UNIVERSITY, priority 2014, dated 2020):
# Changes are numbered by the printed parent chain.
# Columns and labels:
# Dbl-inducible MEFs = assay: Foci forming assay; type: cell-based, mouse; details: MEFs expressing Dbl, 10 μM 968
# From the text: Inducible oncogenic Dbl cell lines were created using the TET-OFF system in mouse embryonic fibroblasts (MEFs) following the manufacturer's instructions (Clontech). Briefly, PCR products for onco-Dbl-containing NotI and XbaI restriction endonuclease sites were cloned in the per2.1 vector using the TOPO-TA cloning kit (Invitrogen) and subsequently subcloned into the p-TREHA vector (Clontech). The pTRE-HA-onco-Dbl was then co-transfected with pMET-Puro in a 20:1 ratio into parental MEFs (Clontech), which contained the transcriptional transactivator (tTa), with Lipofectamine (Invitrogen). Cells were placed under puromycin selection at 48 hours post transfection, and colonies were selected after 2-4 weeks for doxycycline-dependent expression of HA-onco-Dbl using HA.11 antibody (Covance). Cells were maintained in DMEM supplemented with 10% (v/v) Tet system-approved FBS (clontech) and 100 μg/mL G418 (Gibco). To suppress Dbl expression, 1 μg/mL doxycycline was added to the medium every 2 days. Cells were induced by re-plating in doxycycline-free medium where residual doxycycline was removed by replacing the medium 3 hours after plating. Immunofluorescence was conducted on cells grown 48-72 hours on glass cover slips and fixed with 3.7% formaldehyde. […] Digital images were collected using a Zeiss fluorescence microscope and AxioVision 3.1 software. […]
# [1] = target: T1, monomeric GAC (D391K, K316E, R459E) (Mus musculus, UniProt D3Z7P3, D391K/K316E/R459E); assay: 968 binding to GAC mutants, quenching of 488 fluorescence; details: 10 nM total monomer
# T1 construct: (residues 72-603) was cloned into a pET23a vector; His-tag with thrombin cleavage site (N); made in house
# T1 sequence (D3Z7P3 72-603 isoform D3Z7P3-2 K316E/D391K/R459E): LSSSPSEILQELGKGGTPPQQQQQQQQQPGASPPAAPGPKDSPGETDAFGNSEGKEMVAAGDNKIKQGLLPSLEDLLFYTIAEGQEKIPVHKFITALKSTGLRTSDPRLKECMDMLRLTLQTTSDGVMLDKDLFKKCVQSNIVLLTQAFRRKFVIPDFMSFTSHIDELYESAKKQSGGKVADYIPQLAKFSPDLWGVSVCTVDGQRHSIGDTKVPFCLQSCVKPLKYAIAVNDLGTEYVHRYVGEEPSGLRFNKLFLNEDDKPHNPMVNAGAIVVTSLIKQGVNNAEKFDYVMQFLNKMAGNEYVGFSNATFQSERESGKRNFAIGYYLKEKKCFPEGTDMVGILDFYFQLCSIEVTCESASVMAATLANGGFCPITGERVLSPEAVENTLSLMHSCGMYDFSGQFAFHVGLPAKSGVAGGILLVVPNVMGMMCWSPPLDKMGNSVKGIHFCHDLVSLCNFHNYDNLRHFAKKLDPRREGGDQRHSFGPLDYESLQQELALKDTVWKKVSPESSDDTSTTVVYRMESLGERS
# Protocol: Real-time fluorescence monitoring of 968 binding and GAC activity through production of NADH was performed on a Varian Cary Eclipse Fluorometer, whereas small molecule inhibition and binding titrations were performed in a 96-well format in a Tecan Saphire absorbance and fluorescence plate reader. Samples for monitoring real-time binding of 968 to 488-GAC were prepared by adding 10 μL of varying concentrations of 968 prepared in DMSO to an equilibrated 1 mL sample of 10 nM 488-GAC, while observing 488 fluorescence (490 nm excitation/520 nm emission). […] WT GAC (10 nM) was added and allowed to equilibrate 2 minutes before monitoring the fluorescence emission of 488-GAC (490 nm excitation, 520 nm emission) and NADH (340 nm excitation, 490 nm emission). […] The activity of GAC was measured in a coupled assay, by monitoring the NADH produced by glutamate dehydrogenase, which converts the product of the glutaminase-catalyzed reaction, glutamate, to α-ketoglutarate and ammonia by reducing NAD+ to NADH. Because solutions containing glutamine undergo non-enzymatic degradation to glutamate, samples were further analyzed by […] under identical experimental conditions. […]
# GAC = target: T2, GAC (Mus musculus, UniProt D3Z7P3); assay: Real-time GAC enzyme activity assay coupled to glutamate dehydrogenase (NADH fluorescence); type: biochemical
# T2 construct: (residues 72-603) was cloned into a pET23a vector; His-tag with thrombin cleavage site (N, cleaved yes); made in house
# T2 sequence (D3Z7P3 72-603 isoform D3Z7P3-2): T1 sequence (D3Z7P3 72-603 isoform D3Z7P3-2 K316E/D391K/R459E) with E245K, K320D, E388R
compound,measurement,setting,value
CN(C)c1ccc(C2Nc3ccc4ccccc4c3C3=C2C(=O)CC(C)(C)C3)cc1Br (stereo not shown) [Compound 968],Dbl-induced focus formation,Dbl-inducible MEFs,blocked
same,affinity for 968 compared with WT 488-GAC and dimeric GAC (D391K),[1],highest affinity
same,potency of inhibition of GAC activity,GAC; GAC concentration decreased from 50 nM to 5 nM,greater potency
same,inhibition of enzyme activity,GAC; GAC preincubated with inorganic phosphate (50 mM Pi) before 968,much less effective
